Assay [1] concerns Hepatitis C virus. Put plainly: Antiviral activity against HCV1b harboring Q80K polymorphism in NS3 protease gene infected in human Huh7/Lunet cells assessed as inhibition of viral replication after 3 days by luciferase based transient-transfection assay. In kind it is functional, organism-based, Hepacivirus hominis. Conditions: genotype 1b, Huh-7, 72 h.
The test system of assay [2] is Hepatitis C virus. Put plainly: Ratio of EC50 for wild type HCV1b harboring NS3 protease gene to EC50 for HCV1b A25 harboring NS3 protease T40A, T54S, V55I, I64L, P67S, Q80K, Q88H, S90A, L153I mutant. In kind it is functional, Hepacivirus hominis, genotype 1b.
Assay [3] deals with Hepatitis C virus. Put plainly: Ratio of EC50 for wild type HCV1b harboring NS3 protease gene to EC50 for HCV1b harboring NS3 protease T54S mutant. Type of assay: functional, Hepacivirus hominis, genotype 1b.
Assay [4] concerns Hepatitis C virus. Description: Ratio of EC50 for HCV1b harboring Q80K polymorphism in NS3 protease gene to EC50 for HCV1b harboring Q80Q polymorphism in NS3 protease gene. Type of assay: functional, Hepacivirus hominis, genotype 1b.
Assay [5] relates to Hepatitis C virus. Description: Ratio of EC50 for wild type HCV1b harboring NS3 protease gene to EC50 for HCV1b harboring NS3 protease Q80K mutant. In kind it is functional, Hepacivirus hominis, genotype 1b.
Assay [6] deals with Hepatitis C virus. Description: Ratio of EC50 for wild type HCV1b harboring NS3 protease gene to EC50 for HCV1b B10 harboring NS3 protease S7A, R26K, V48I, T54S mutant. In kind it is functional, Hepacivirus hominis, genotype 1b.
Assay [7] relates to Hepatitis C virus. Put plainly: Ratio of EC50 for wild type HCV1b harboring NS3 protease gene to EC50 for HCV1b B13 harboring NS3 protease R26K, V46I, Q80L mutant. In kind it is functional, Hepacivirus hominis, genotype 1b.
The test system of assay [8] is Hepatitis C virus. Description: Ratio of EC50 for wild type HCV1b harboring NS3 protease gene to EC50 for HCV1b harboring NS3 protease Q80K, T54S mutant. Type of assay: functional, Hepacivirus hominis, genotype 1b.
Assay [9] deals with Hepatitis C virus. Description: Antiviral activity against HCV1b harboring Q80Q polymorphism in NS3 protease gene infected in human Huh7/Lunet cells assessed as inhibition of viral replication after 3 days by luciferase based transient-transfection assay. Type of assay: functional, organism-based, Hepacivirus hominis. The following applies: genotype 1b, Huh-7, 72 h.
The test system of assay [10] is Hepatitis C virus. Description: Antiviral activity against HCV1b Con1 harboring NS3 protease gene infected in human Huh7/Lunet cells assessed as inhibition of viral replication after 3 days by luciferase based transient-transfection assay. The following applies: Con1, Huh-7, 72 h. Type of assay: functional, organism-based, Hepacivirus hominis.

SMILES strings stand for the structures. pEC50: −log10 of the molar value.

For the molecule `CC(C)(C)NC(=O)N[C@H](C(=O)N1C[C@H]2[C@@H]([C@H]1C(=O)NC(CC1CCC1)C(=O)C(N)=O)C2(C)C)C(C)(C)C` (stereo partly specified) [BOCEPREVIR], the results for the negative logarithm of the EC50 (pEC50) in [1], in [9] and in [10] were 7.04, 6.70 and 6.56, respectively. The “Ratio EC50” value in assay [2] is given as 1.7; in assay [3] it was 4.7; in assay [4], 0.4; in assay [5], 0.9; in assay [6] it was 9; in [7] it was 1. Also, the “Ratio EC50” value in assay [8] is reported as 1.7.

As for `CC(C)(C)OC(=O)N[C@H]1CCCCC/C=C\[C@@H]2C[C@@]2(C(=O)NS(=O)(=O)C2CC2)NC(=O)[C@@H]2C[C@@H](OC(=O)N3Cc4cccc(F)c4C3)CN2C1=O` [DANOPREVIR], the negative logarithm of the EC50 (pEC50) in assay [1] is 9.21; in [9] it was 9.60; in assay [10], 9.22. The “Ratio EC50” value in [2] was determined as 2.7; in assay [3], 1; in assay [4], 1.7; in assay [5], 6.3; in assay [6], 1.2; in assay [7], 1.7. For the same molecule, in assay [8], the “Ratio EC50” value worked out at 5.3.

In the case of `CCC[C@H](NC(=O)[C@@H]1[C@H]2CCC[C@H]2CN1C(=O)[C@@H](NC(=O)[C@@H](NC(=O)c1cnccn1)C1CCCCC1)C(C)(C)C)C(=O)C(=O)NC1CC1` [TELAPREVIR], the pEC50 in assay [1] was 7.14; in [9], 6.75; in [10], 6.42. Moreover, the “Ratio EC50” value is 1 in [2]; 5.6 in [3]; 0.5 in assay [4]; 1 in [5]; 6.2 in assay [6]; 1 in assay [7]. For the same molecule, in assay [8], the “Ratio EC50” value is listed as 2.3.

Turning to `CCCCCOc1ccc(NC(=S)NC(=O)c2cccnc2)cc1C(F)(F)F`, in assay [10], the pEC50 is 7.55.

`CC[C@@H]1C[C@]1(NC(=O)[C@@H]1C[C@@H]2CN1C(=O)[C@H](C(C)(C)C)NC(=O)OCC(C)(C)CCCCc1cccc3c1CN(C3)C(=O)O2)C(=O)NS(=O)(=O)C1CC1` [VANIPREVIR]: the pEC50 in [1] is 9.39; in [9], 9.57; in assay [10], 9.15. Besides, the “Ratio EC50” value in assay [2] was 2.2; in assay [3] it was 0.5; in [4], 1.5; in assay [5], 6.6; in [6], 1.2; in assay [7] it was 1.5. For the same molecule, the “Ratio EC50” value in [8] is listed as 3.7.

In the case of `COc1ccc2c(O[C@@H]3C[C@H]4C(=O)N[C@]5(C(=O)NS(=O)(=O)C6CC6)C[C@H]5/C=C\CCCCN(C)C(=O)[C@@H]4C3)cc(-c3nc(C(C)C)cs3)nc2c1C` [SIMEPREVIR], the pEC50 was 7.70 in assay [1], 8.57 in assay [9] and 8.48 in [10]. Moreover, the “Ratio EC50” value is listed as 10.8 in [2]; 0.7 in assay [3]; 7.5 in assay [4]; 10.9 in [5]; 0.8 in assay [6]; 1 in assay [7]. For the same molecule, in assay [8], the “Ratio EC50” value is given as 7.3.

For the origin of these results see ChEMBL document CHEMBL1687806, “Susceptibility of treatment-naive hepatitis C virus (HCV) clinical isolates to HCV protease inhibitors” (Antimicrob Agents Chemother, 2010).
